Assays:
Type in all cases: biochemical
TYK2 kinase = TYK2 kinase (Homo sapiens (Human), UniProt P29597); experiment: TYK2 kinase inhibition assay (33P-ATP, Reaction Biology Corp.); details: substrate AXLtide, 120 min at room temperature, read-out: In Vitro Enzyme IC50 (nM) TYK2
Description: (§1) Compounds of the invention were assayed for their ability to inhibit TYK2 kinase and other JAK kinases.
(§2) Substrates and kinases used in the assays are identified in Table 2 below.

JAK1 = JAK1 (Homo sapiens (Human), UniProt P23458); experiment: JAK1 kinase inhibition assay (33P-ATP, Reaction Biology Corp.); details: substrate pEY, 120 min at room temperature, read-out: In Vitro Enzyme IC50 (nM) JAK1
Sequence of JAK1 (P23458 866-1154): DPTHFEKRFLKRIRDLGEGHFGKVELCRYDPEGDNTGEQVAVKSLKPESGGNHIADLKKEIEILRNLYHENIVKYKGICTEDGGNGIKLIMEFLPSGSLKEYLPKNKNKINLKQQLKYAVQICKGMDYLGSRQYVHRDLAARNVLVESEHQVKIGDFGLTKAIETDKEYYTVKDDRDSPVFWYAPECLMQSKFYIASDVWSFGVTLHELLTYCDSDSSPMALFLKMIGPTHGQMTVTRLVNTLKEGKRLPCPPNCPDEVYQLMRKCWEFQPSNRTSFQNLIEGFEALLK
Description: as §1, §2

JAK2 = JAK2 (Homo sapiens (Human), UniProt O60674); experiment: JAK2 kinase inhibition assay (33P-ATP, Reaction Biology Corp.); details: substrate pEY, 120 min at room temperature, read-out: In Vitro Enzyme IC50 (nM) JAK2
Sequence of JAK2 (O60674 809-1132): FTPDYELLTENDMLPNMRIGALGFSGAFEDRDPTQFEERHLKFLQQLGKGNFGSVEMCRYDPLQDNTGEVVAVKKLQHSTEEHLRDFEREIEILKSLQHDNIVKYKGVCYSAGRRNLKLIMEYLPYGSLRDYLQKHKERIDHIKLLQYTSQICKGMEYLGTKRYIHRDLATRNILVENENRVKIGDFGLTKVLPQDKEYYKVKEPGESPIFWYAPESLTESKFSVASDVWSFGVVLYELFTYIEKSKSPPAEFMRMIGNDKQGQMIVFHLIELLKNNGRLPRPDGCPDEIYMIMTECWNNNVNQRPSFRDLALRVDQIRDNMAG
Description: as §1, §2

JAK3 = JAK3 (Homo sapiens (Human), UniProt P52333); experiment: JAK3 kinase inhibition assay (33P-ATP, Reaction Biology Corp.); details: substrate JAK3tide, 120 min at room temperature, read-out: In Vitro Enzyme IC50 (nM) JAK3
Sequence of JAK3 (P52333 781-1124): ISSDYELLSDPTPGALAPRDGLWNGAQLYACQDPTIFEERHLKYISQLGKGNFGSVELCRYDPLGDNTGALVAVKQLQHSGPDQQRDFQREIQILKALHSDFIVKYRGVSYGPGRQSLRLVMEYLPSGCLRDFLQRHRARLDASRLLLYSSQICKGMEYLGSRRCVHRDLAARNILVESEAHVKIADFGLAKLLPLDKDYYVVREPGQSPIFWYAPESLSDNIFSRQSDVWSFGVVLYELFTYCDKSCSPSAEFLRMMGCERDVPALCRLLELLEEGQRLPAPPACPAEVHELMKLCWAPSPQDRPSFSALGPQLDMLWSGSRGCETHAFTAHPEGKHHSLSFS
Description: as §1, §2

Sequence of TYK2 kinase (P29597 833-1187): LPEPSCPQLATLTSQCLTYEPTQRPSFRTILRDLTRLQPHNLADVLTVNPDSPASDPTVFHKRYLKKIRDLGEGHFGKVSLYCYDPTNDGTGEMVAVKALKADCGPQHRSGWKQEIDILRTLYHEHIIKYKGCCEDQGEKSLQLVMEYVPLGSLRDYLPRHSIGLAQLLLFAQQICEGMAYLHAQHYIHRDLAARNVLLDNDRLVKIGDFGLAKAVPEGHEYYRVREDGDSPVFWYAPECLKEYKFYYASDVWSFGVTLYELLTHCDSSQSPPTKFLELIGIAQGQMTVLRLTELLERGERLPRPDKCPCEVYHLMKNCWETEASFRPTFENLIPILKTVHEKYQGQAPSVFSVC

Row | Compound | IC50 (TYK2 kinase) | IC50 (JAK1) | IC50 (JAK2) | IC50 (JAK3)
1 | CS(=O)(=O)c1ccc(Nc2oc(-c3c(F)cccc3F)nc2C(N)=O)cc1 [Example 1, 2-(2,6-difluorophenyl)-5-(4-(methylsulfonyl)phenylamino)oxazole-4-carboxamide] | 13.5 nM | 90.2 nM | 235 nM | 405 nM
2 | NC(=O)c1nc(-c2c(F)cccc2F)oc1Nc1ccc(S(N)(=O)=O)cc1 [Example 2, 2-(2,6-difluorophenyl)-5-(4-sulfamoylphenylamino)oxazole-4-carboxamide] | 14.6 nM | 78.2 nM | 147 nM | 419 nM
3 | CN(C)S(=O)(=O)c1ccc(Nc2oc(-c3c(F)cccc3F)nc2C(N)=O)cc1 [Example 3, 2-(2,6-difluorophenyl)-5-(4-(N,N-dimethylsulfamoyl)phenylamino)oxazole-4-carboxamide] | 5.3 nM | 47.6 nM | 95 nM | 359 nM
4 | CNS(=O)(=O)c1ccc(Nc2oc(-c3c(F)cccc3F)nc2C(N)=O)cc1 [Example 4, 2-(2,6-difluorophenyl)-5-(4-(N′-methylsulfamoyl)phenylamino)oxazole-4-carboxamide] | 13.8 nM | 65.6 nM | 109 nM | 387 nM
5 | CN(C)C(=O)c1ccc(Nc2oc(-c3c(F)cccc3F)nc2C(N)=O)cc1 [Example 5, 2-(2,6-difluorophenyl)-5-(4-(dimethylcarbamoyl)phenylamino)oxazole-4-carboxamide] | 9.2 nM | 88.6 nM | 112 nM | 219 nM
6 | NCCCNC(=O)c1ccc(Nc2oc(-c3c(F)cccc3F)nc2C(N)=O)cc1 [Example 6, 5-(4-((3-aminopropyl)carbamoyl)phenylamino)-2-(2,6-difluorophenyl)oxazole-4-carboxamide] | 25 nM | 192 nM | 297 nM | 472 nM
7 | NC(=O)c1nc(-c2c(F)cccc2F)oc1Nc1ccc(C(=O)N[C@@H]2CCCNC2)cc1 [Example 7, (R)-2-(2,6-difluorophenyl)-5-(4-(piperidin-3-ylcarbamoyl)phenylamino)oxazole-4-carboxamide] | 9.8 nM | 202 nM | 261 nM | 419 nM
8 | NC(=O)c1nc(-c2c(F)cccc2F)oc1Nc1ccc(C(=O)N[C@H]2CCCNC2)cc1 [Example 8, (S)-2-(2,6-difluorophenyl)-5-(4-(piperidin-3-ylcarbamoyl)phenylamino)oxazole-4-carboxamide] | 12.9 nM | 201 nM | 268 nM | 408 nM
9 | NC(=O)c1nc(-c2c(F)cccc2F)oc1Nc1ccc(C(=O)N2CCOCC2)cc1 [Example 9, 2-(2,6-difluorophenyl)-5-(4-(morpholine-4-carbonyl)phenylamino)oxazole-4-carboxamide] | 22.7 nM | 75.6 nM | 267 nM | 423 nM
10 | CNCCNC(=O)c1ccc(Nc2oc(-c3c(F)cccc3F)nc2C(N)=O)cc1 [Example 10, 5-(4-((2-(methylamino)ethyl)carbamoyl)phenylamino)-2-(2,6-difluorophenyl) oxazole-4-carboxamide] | 20.5 nM | 183 nM | 311 nM | 397 nM
11 | CNCCCNC(=O)c1ccc(Nc2oc(-c3c(F)cccc3F)nc2C(N)=O)cc1 [Example 11, 5-(4-((3-(methylamino)propyl)carbamoyl)phenylamino)-2-(2,6-difluorophenyl) oxazole-4-carboxamide] | 15.1 nM | 190 nM | 338 nM | 388 nM
12 | NC(=O)c1nc(-c2c(F)cccc2F)oc1Nc1ccc(C(=O)N[C@@H]2CCNC2)cc1 [Example 12, (R)-2-(2,6-difluorophenyl)-5-(4-(pyrrolidin-3-ylcarbamoyl)phenylamino)oxazole-4-carboxamide] | 23.4 nM | 169 nM | 292 nM | 346 nM
13 | NC(=O)c1nc(-c2c(F)cccc2F)oc1Nc1ccc(C(=O)N[C@H]2CCNC2)cc1 [Example 13, (S)-2-(2,6-difluorophenyl)-5-(4-(pyrrolidin-3-ylcarbamoyl)phenylamino)oxazole-4-carboxamide] | 11.2 nM | 123 nM | 182 nM | 342 nM
14 | NC(=O)c1nc(-c2c(F)cccc2F)oc1Nc1ccc(C(=O)N2CCC[C@@H]2CO)cc1 [Example 14, (R)-2-(2,6-difluorophenyl)-5-(4-(2-(hydroxymethyl)pyrrolidine-1-carbonyl)phenylamino)oxazole-4-carboxamide] | 9.6 nM | 67.2 nM | 36 nM | 126 nM
15 | NC(=O)c1nc(-c2c(F)cccc2F)oc1Nc1ccc(C(=O)NCCO)cc1 [Example 15, 5-(4-((2-hydroxyethyl)carbamoyl)phenylamino)-2-(2,6-difluorophenyl)oxazole-4-carboxamide] | 7.5 nM | 41.1 nM | 101 nM | 195 nM
16 | NC(=O)c1nc(-c2c(F)cccc2F)oc1Nc1ccc(C(=O)NCCCO)cc1 [Example 16, 5-(4-((3-hydroxypropyl)carbamoyl)phenylamino)-2-(2,6-difluorophenyl)oxazole-4-carboxamide] | 8.4 nM | 58.1 nM | 119 nM | 199 nM
17 | NC(=O)c1nc(-c2c(F)cccc2F)oc1Nc1ccc(C(=O)NC2CCNCC2)cc1 [Example 17, 2-(2,6-difluorophenyl)-5-(4-(piperidin-4-ylcarbamoyl)phenylamino)oxazole-4-carboxamide] | 13.7 nM | 153 nM | 167 nM | 99.2 nM
18 | CN1CCC(NC(=O)c2ccc(Nc3oc(-c4c(F)cccc4F)nc3C(N)=O)cc2)CC1 [Example 18, 5-(4-((1-methylpiperidin-4-yl)carbamoyl)phenylamino)-2-(2,6-difluorophenyl) oxazole-4-carboxamide] | 13.8 nM | 118 nM | 192 nM | 165 nM
19 | CS(=O)(=O)c1ccc(Nc2oc(-c3c(Cl)cccc3Cl)nc2C(N)=O)cc1 [Example 19, 2-(2,6-Dichloro-phenyl)-5-(4-methanesulfonyl-phenylamino)-oxazole-4-carboxylic acid amide] | 2.3 nM | 21.9 nM | 87.7 nM | 214 nM
20 | CS(=O)(=O)c1ccc(Nc2oc(-c3c(F)cccc3Cl)nc2C(N)=O)cc1 [Example 20, 2-(2-Chloro-6-fluoro-phenyl)-5-(4-methanesulfonyl-phenylamino)-oxazole-4-carboxylic acid amide] | 2.7 nM | 28.7 nM | 72.6 nM | 165 nM
21 | CS(=O)(=O)c1ccc(Nc2oc(-c3c(F)cc(F)cc3F)nc2C(N)=O)cc1 [Example 21, 5-(4-Methanesulfonyl-phenylamino)-2-(2,4,6-trifluoro-phenyl)-oxazole-4-carboxylic acid amide] | 68.3 nM | 241 nM | 412 nM | 2180 nM
22 | CS(=O)(=O)c1ccc(Nc2oc(-c3cc(F)ccc3F)nc2C(N)=O)cc1 [Example 22, 2-(2,5-Difluoro-phenyl)-5-(4-methanesulfonyl-phenylamino)-oxazole-4-carboxylic acid amide] | 183 nM | 843 nM | 663 nM | 5500 nM

Source: patent publication US10882829B2, “Pharmaceutical compounds” (Sareum Limited, priority 2012, dated 2021)
